{
  "source": "patent US20050142169A1",
  "about": "“Palatability enhanced composition and method for animal consumption” (priority 2003, published 2005)",
  "test_system": "cats",
  "experiment": "two-bowl preference test, Example 7 (Feline w/d)",
  "format": "in vivo, cat",
  "settings": "dry wt. of kibble",
  "text": "Finally, a commercial dry palatant enhancer (1.4% dry weight basis) was topically applied to the dry kibbles to complete the test composition.",
  "key": {"[1]": {"settings": "Exp. No. 1, second set of experiments, 5 ppm"}, "[2]": {"settings": "Exp. No. 2, second set of experiments, 20 ppm"}},
  "data": [
    {"smiles": "CCC1OC(C)=C(O)C1=O", "note": "(stereo not shown) [5-methyl-2-ethyl-4-hydroxy-3(2H)-furanone]", "values": [
      {"measurement": "Intake Ratio", "setting": "Exp. No. 1, 5 ppm", "value": 0.8254},
      {"measurement": "Preference (%) control composition", "setting": "Exp. No. 1, 5 ppm", "value": 12.0, "unit": "%"},
      {"measurement": "Preference (%) test composition", "setting": "Exp. No. 1, 5 ppm", "value": 88.0, "unit": "%"},
      {"measurement": "Status (vs. control)", "setting": "Exp. No. 1, 5 ppm", "value": "Win"},
      {"measurement": "Intake Ratio", "setting": "[1]", "value": 0.7476},
      {"measurement": "Preference (%) control composition", "setting": "[1]", "value": 21.7, "unit": "%"},
      {"measurement": "Preference (%) test composition", "setting": "[1]", "value": 78.3, "unit": "%"},
      {"measurement": "Status (vs. control)", "setting": "[1]", "value": "Win"},
      {"measurement": "Intake Ratio", "setting": "Exp. No. 2, 20 ppm", "value": 0.9731},
      {"measurement": "Preference (%) control composition", "setting": "Exp. No. 2, 20 ppm", "value": 0.0, "unit": "%"},
      {"measurement": "Preference (%) test composition", "setting": "Exp. No. 2, 20 ppm", "value": 100.0, "unit": "%"},
      {"measurement": "Status (vs. control)", "setting": "Exp. No. 2, 20 ppm", "value": "Win"},
      {"measurement": "Intake Ratio", "setting": "[2]", "value": 0.8679},
      {"measurement": "Preference (%) control composition", "setting": "[2]", "value": 8.0, "unit": "%"},
      {"measurement": "Preference (%) test composition", "setting": "[2]", "value": 92.0, "unit": "%"},
      {"measurement": "Status (vs. control)", "setting": "[2]", "value": "Win"}
    ]}
  ]
}
